This is an account of results in patent US20100311714A1, “1H-IMIDAZO[4,5-c]QUINOLINONE COMPOUNDS” (priority 2009, published 2010).

Bounds are passed on as bounds.

For experiment [1], the system named is PKB Ser473 phosphorylation in Rat1-myr-HA-p110 delta cells. The experiment in a line: Reverse protein array, PKB Ser473 phosphorylation in Rat1-myr-HA-p110 delta cells. The experiment is classed as cell-based. The conditions noted are these: Rattus norvegicus, 0.5 h, 30 minutes compound incubation, read-out: p-PKB/IC50_delta.
The test system of experiment [2] is PKB Ser473 phosphorylation in Rat1-myr-HA-p110 beta cells. The experiment in a line: Reverse protein array, PKB Ser473 phosphorylation in Rat1-myr-HA-p110 beta cells. In kind it is cell-based. The settings on record: Rattus norvegicus, 0.5 h, 30 minutes compound incubation, read-out: p-PKB/IC50_beta.

For `COCCN(C)c1ccc(-n2c(=O)n(C)c3cnc4ccc(-c5cnc6c(ccn6C)c5)cc4c32)c(C)n1` [Example 15.7, 1-{6-[(2-Methoxy-ethyl)-methyl-amino]-2-methyl-pyridin-3-yl}-3-methyl-8-(1-methyl-1H-pyrrolo[2,3-b]pyridin-5-yl)-1,3-dihydro-imidazo[4,5-c]quinolin-2-one], the IC50 worked out at 0.0443 µM in experiment [1] and 0.0244 µM in experiment [2].
For `COCCN(C)c1ccc(-n2c(=O)n(C)c3cnc4ccc(-c5cncc(N)c5)cc4c32)c(C)n1` [Example 15.8, 8-(5-Amino-pyridin-3-yl)-1-{6-[(2-methoxy-ethyl)-methyl-amino]-2-methyl-pyridin-3-yl}-3-methyl-1,3-dihydro-imidazo[4,5-c]quinolin-2-one], the IC50 in experiment [1] came out at 0.0597 µM; in experiment [2], 0.0232 µM.
On the same counts, the results for `COCCN(C)c1ccc(-n2c(=O)n(C)c3cnc4ccc(-c5cnc(CO)c(OC)c5)cc4c32)c(C)n1` [Example 15.9, 8-(6-Hydroxymethyl-5-methoxy-pyridin-3-yl)-1-{6-[(2-methoxy-ethyl)-methyl-amino]-2-methyl-pyridin-3-yl}-3-methyl-1,3-dihydro-imidazo[4,5-c]quinolin-2-one] are 0.0388 µM and 0.0404 µM.
On the same counts, the results for `Cc1cc(F)ncc1-n1c(=O)n(C)c2cnc3ccc(-c4cnc(N)c(C(F)(F)F)c4)cc3c21` [Example 16.1, 8-(6-Amino-5-trifluoromethyl-pyridin-3-yl)-1-(6-fluoro-4-methyl-pyridin-3-yl)-3-methyl-1,3-dihydro-imidazo[4,5-c]quinolin-2-one] are 0.0429 µM and 0.0656 µM.
On the same counts, the results for `CCNc1cc(-c2ccc3ncc4c(c3c2)n(-c2cnc(F)cc2C)c(=O)n4C)cnc1C` [Example 16.2, 8-(5-Ethylamino-6-methyl-pyridin-3-yl)-1-(6-fluoro-4-methyl-pyridin-3-yl)-3-methyl-1,3-dihydro-imidazo[4,5-c]quinolin-2-one] are 0.0633 µM and 0.0783 µM.
`CNc1ncc(-c2ccc3ncc4c(c3c2)n(-c2cnc(F)cc2C)c(=O)n4C)cn1` [Example 16.3, 1-(6-Fluoro-4-methyl-pyridin-3-yl)-3-methyl-8-(2-methylamino-pyrimidin-5-yl)-1,3-dihydro-imidazo[4,5-c]quinolin-2-one]: the IC50 in experiment [1] was determined as 0.304 µM; in experiment [2] it was 0.302 µM.
For `CNc1ccc(-c2ccc3ncc4c(c3c2)n(-c2cnc(F)cc2C)c(=O)n4C)cn1` [Example 16.4, 1-(6-Fluoro-4-methyl-pyridin-3-yl)-3-methyl-8-(6-methylamino-pyridin-3-yl)-1,3-dihydro-imidazo[4,5-c]quinolin-2-one], in that order: 0.408 µM and 0.141 µM.
As for `CCOc1ccc(-c2ccc3ncc4c(c3c2)n(-c2cncc(C)c2)c(=O)n4C)cn1` [Example 17.1, 8-(6-Ethoxy-pyridin-3-yl)-3-methyl-1-(5-methyl-pyridin-3-yl)-1,3-dihydro-imidazo[4,5-c]quinolin-2-one], the figures for the IC50 in experiment [1] and in experiment [2] were 0.412 µM and 0.202 µM, respectively.
On the same counts, the results for `CNc1cc(-c2ccc3ncc4c(c3c2)n(-c2ccc(N(C)C)nc2C)c(=O)n4C)cnc1C` [Example 19.2, 1-(6-Dimethylamino-2-methyl-pyridin-3-yl)-3-methyl-8-(6-methyl-5-methylamino-pyridin-3-yl)-1,3-dihydro-imidazo[4,5-c]quinolin-2-one] are under 0.00457 µM and under 0.00457 µM.
On the same counts, the results for `CCOc1ccc(-c2ccc3ncc4c(c3c2)n(-c2ccc(N(C)C)nc2C)c(=O)n4C)cn1` [Example 19.3, 1-(6-Dimethylamino-2-methyl-pyridin-3-yl)-8-(6-ethoxy-pyridin-3-yl)-3-methyl-1,3-dihydro-imidazo[4,5-c]quinolin-2-one] are 0.0747 µM and 0.0142 µM.
